Data from patent publication US20250145637A1, “SULFONAMIDE DERIVATIVE, PREPARATION METHOD THEREFOR AND MEDICAL USE THEREOF” (Jiangsu Hengrui Pharmaceuticals Co. Ltd., priority 2021, published 2025).

System: H3K23 acetylation in U-2 OS cells
Assay: U2OS cell H3K23 acetylation IF assay (immunofluorescence)
Format: cell-based
Conditions: Homo sapiens; for IC50: 24 h incubation, read-out: H3K23 ac/IC50; for Emax: inhibition of H3K23 acetylation, 24 h, read-out: Maximum inhibition rate/Imax %
Protocol: Test Example 3: U2OS Cell H3K23 Acetylation IF Assay (Immunofluorescence)
I. Reagents and Instruments
• 1. U-2 OS (ATCC HTB-96) • 2. Recombinant anti-histone H3 (acetyl K23) antibody (Abcam, ab177275) • 3. Goat anti-rabbit IgG (H+L), Superclonal™ recombinant secondary antibody, Alexa Fluor 488 (Thermofisher, A27034) • 4. Hoechst 33342 (Sigma-Aldrich, B2261-25MG) • 5. Assay plate, 96-well, black with clear bottom (Corning, 3603) • 6. Bovine serum albumin (BSA) (Sangon Biotech, A500023-0100) • 7. Methanol (GENERAL-REAGENT, G75851D) • 8. Tween-20 (Sangon, A100777-0500) • 9. Triton X-100 (Solarbio, T8200) • 10. PBS (Shanghai BasalMedia Technologies Co., Ltd., B320KJ) • 11. 20×PBS buffer (Sangon Biotech, B548117-0500) • 12. McCoy's 5A medium (Gibco, 16600082) • 13. 0.25% trypsin-EDTA (1×) (Gibco, 25200-072) • 14. Pen strep (Gibco, 15140-122) • 15. DPBS (1×) (Gibco, 14190-144) • 16. FBS (Gibco, 10091148) • 17. Automatic cell counter (Countstar, IC1000) • 18. Thermostatic incubator (Thermo, 1160) • 19. ImageXpress® Micro Confocal (Molecular Device)
a. Blocking buffer: PBS (Shanghai BasalMedia)+BSA (final concentration of 1%)+Triton X-100 (final concentration of 0.5%).
b. Wash buffer: PBS (20×PBS was diluted to 1×PBS)+Tween-20 (final concentration of 0.1%).
c. Primary antibody solution: Recombinant anti-histone H3 (acetyl K23) antibody was diluted in blocking buffer at a ratio of 1:1000.
d. Secondary antibody solutions: Goat anti-rabbit IgG (H+L), Superclonal™ recombinant secondary antibody, Alexa Fluor 488 was diluted in blocking buffer at a ratio of 1:1000, and Hoechst 33342 was diluted in blocking buffer at a ratio of 1:5000.
e. Compounds: initial concentration of 100 μM, 3-fold dilution, 9 gradient concentrations. All compound concentrations were diluted 500-fold with McCoy's 5A medium for later use.
2. Experimental Procedure
2.1. Cell Treatment (Day One)
a. The state of U-2 OS cells was observed under a microscope to make sure that the cell confluence was about 90%.
b. The cell supernatant was discarded. The cells were rinsed with DPBS once, and the DPBS was removed. The cells were digested with a proper amount of trypsin and left to stand at room temperature or 37° C. for 5 min.
c. The digestion was stopped with an equal volume of medium containing 10% FBS, and the cell suspension was collected and centrifuged at 300 g for 3 min. The cells were suspended in a proper amount of fresh medium.
d. The resulting cell suspension was collected and cell counting was performed.
e. The cell suspension was diluted and plated at 9000 cells/50 μL/well.
f. The wells on the periphery were blocked with 100 μL of PBS.
g. The cell culture plates were incubated overnight in a 37° C., 5% carbon dioxide incubator.
2.2. Compound Addition (Day Two)
a. 50 μL of diluted compound was added to the cell supernatant (50 μL/well) in each cell plate.
b. After the addition, the cell plates were incubated in a 37° C., 5% carbon dioxide incubator for 24 h.
2.3. Immunofluorescence Staining and Measurement (Day Three to Day Four)
a. After the 24-hour incubation, the cell plates were removed from the incubator. The medium was discarded, and plates were fixed with pre-cooled methanol at room temperature for 10 min.
b. The fixation buffer was discarded, and the plates were quickly washed with wash buffer 3 times and then slowly washed 3 times (5 min/wash).
c. The wash buffer was discarded, and blocking buffer was added. The plates were incubated at room temperature for 60 min.
d. The blocking buffer was discarded, and the prepared primary antibody solution was added. The plates were incubated overnight at 4° C.
e. The primary antibody solution was discarded, and the prepared secondary antibody solution was added. The plates were incubated at room temperature for 60 min.
f. The secondary antibody solution was discarded, and the plates were quickly washed with wash buffer 3 times and then slowly washed 5 times (5 min/wash).
g. The plates were tested on ImageXpress® Micro Confocal.
h. […]

Row | Compound | IC50 [nM] | Emax [%]
1 | CCOc1cc(C)ccc1S(=O)(=O)Nc1noc2cc(Cn3cccn3)c3c(c12)OCCC3 [Compound 7, N-(5-((1H-pyrazol-1-yl)methyl)-3,4-dihydro-2H-chromeno[8,7-d]isoxazol-9-yl)-2-ethoxy-4-methylbenzenesulfonamide] | 1.4 | 97.4
2 | Cc1ccc(S(=O)(=O)Nc2noc3cc(Cn4cccn4)c4c(c23)OCCC4)c(OCC(F)(F)F)c1 [Compound 8, N-(5-((1H-pyrazol-1-yl)methyl)-3,4-dihydro-2H-chromeno[8,7-d]isoxazol-9-yl)-4-methyl-2-(2,2,2-trifluoroethoxy)benzenesulfonamide] | 2.8 | 99.4
3 | COc1cccc(OC(F)(F)F)c1S(=O)(=O)Nc1noc2cc(Cn3cccn3)c3c(c12)OCCC3 [Compound 10, N-(5-((1H-pyrazol-1-yl)methyl)-3,4-dihydro-2H-chromeno[8,7-d]isoxazol-9-yl)-2-methoxy-6-(trifluoromethoxy)benzenesulfonamide] | 1.2 | 106
4 | COc1ccccc1S(=O)(=O)Nc1noc2cc(Cn3cccn3)c3c(c12)OCC3 [Compound 20, N-(4-((1H-pyrazol-1-yl)methyl)-2,3-dihydrobenzofuro[7,6-d]isoxazol-8-yl)-2-methoxybenzenesulfonamide] | 4.6 | 99.4

Now those with a lower IC50, led by results:

Row | IC50 [nM] | Compound | Emax [%]
5 | 1.1 | COc1cccc(OC)c1S(=O)(=O)Nc1noc2cc(Cn3cccn3)c3c(c12)OCC3 [Compound 1, N-(4-((1H-pyrazol-1-yl)methyl)-2,3-dihydrobenzofuro[7,6-d]isoxazol-8-yl)-2,6-dimethoxybenzenesulfonamide] | 102
6 | 0.9 | COc1ccccc1S(=O)(=O)Nc1noc2cc(Cn3cccn3)c3c(c12)OCCC3 [Compound 3, N-(5-((1H-pyrazol-1-yl)methyl)-3,4-dihydro-2H-chromeno[8,7-d]isoxazol-9-yl)-2-methoxybenzenesulfonamide] | 106
7 | 0.75 | COc1ccc(F)cc1S(=O)(=O)Nc1noc2cc(Cn3cccn3)c3c(c12)OCCC3 [Compound 9, N-(5-((1H-pyrazol-1-yl)methyl)-3,4-dihydro-2H-chromeno[8,7-d]isoxazol-9-yl)-5-fluoro-2-methoxybenzenesulfonamide] | 99.5
8 | 0.6 | COc1cccc(OC)c1S(=O)(=O)Nc1noc2cc(Cn3cccn3)c3c(c12)OC(F)(F)O3 [Compound 5, N-(4-((1H-pyrazol-1-yl)methyl)-2,2-difluoro-[1,3]dioxolo[4′,5′:5,6]benzo[1,2-d]isoxazol-8-yl)-2,6-dimethoxybenzenesulfonamide] | 104
9 | 0.4 | COc1cccc(OC)c1S(=O)(=O)Nc1noc2cc(Cn3cccn3)c3c(c12)OCCC3 [Compound 2, N-(5-((1H-pyrazol-1-yl)methyl)-3,4-dihydro-2H-chromeno[8,7-d]isoxazol-9-yl)-2,6-dimethoxybenzenesulfonamide] | 98.5
